The values that follow come from US9139596B2, “Cyclic prodrugs of duocarmycin analogs” (The Scripps Research Institute, priority 2012, dated 2015).

Read-outs that look alike come from different tables or passages of the source.

The test system of series [1] is L1210 murine leukemia cell line. The series can be described thus: In vitro cytotoxic activity (cell growth inhibition), L1210. The class given is cell-based. The procedure:
In Vitro Cytotoxic Activity. Both (+)- and ent-(−)-6 and their N-Boc precursors 16 were tested for cell growth inhibition in a cytotoxic assay with the L1210 murine leukemia cell line.

The conditions of series [2]: calf serum; cited from earlier work.
For series [3] the following is noted: human, plasma; cited from earlier work.
Series [4] in a line: Chemical reactivity of N-Boc-prodrug 16 under acidic, basic and nucleophilic conditions. In kind it is physicochemical. The procedure:
In order to determine the ability of the free drug to be released under physiological conditions, the chemical reactivity of N-Boc-prodrug 16 was assessed under a variety of acidic, basic, and nucleophilic conditions.

Series [5] has as its system L1210 murine leukemia cell line. Particulars: L1210, natural enantiomer, literature ref 9; cited from earlier work.
The subject of series [6] is L1210 murine leukemia cells implanted ip. As to the kind of experiment: In vivo antitumor activity (L1210, ip). Particulars: for Surviving Mice: live animals after 250 days. The procedure:
Therefore, the in vivo antitumor activity of (+)-6 was assessed alongside seco-CBI-indole2 (4) in an antitumor model consisting of L1210 murine leukemia cells implanted ip into […] which has been used historically as an initial antitumor model for comparisons in this class.^11,12,14,15 A dose range of 300 to 9000 μg/kg for prodrug (+)-6 (scaled to its in vitro cytotoxic activity IC50) and 60 to 500 μg/kg for seco-CBI-indole2 (4) and a dosing schedule (administered three times ip on days 1, 5, and 9) for both compounds was employed.
B6D2F1 mice were injected intraperitoneal (i.p.) with syngeneic L1210 cells (1×10^6) on day 0. Ten mice were randomly assigned to control vehicle or treatment groups for compounds (+)-4 and (+)-6 at doses of 60, 100, 250, and 500 μg/kg/inj for (+)-4 or 300, 1000, 3000, and 9000 μg/kg/inj for (+)-6. Compounds (+)-4 and (+)-6 were formulated in 100% DMSO, and injected i.p. on study days 1, 5, and 9. Following injection of tumor cells, animals were monitored daily and weighed two times per week. Percent survival (T/C) for treated and control groups were determined by dividing the total survival days for each treatment group by the total survival days for the control group and multiplying ×100. All animal studies were carried out in the animal facilities of The University of Kansas Medical Center with strict adherence to the guidelines of the IACUC Animal Welfare Committee of KUMC (IACUC approval #2009-1837).

Series [7] shares this test system. Particulars: previously established; cited from earlier work.
The nature of another series: Solvolysis of 21. In kind it is physicochemical. The settings on record: 25° C., UV 255 nm; for half-life: CH3OH / aqueous citrate-phosphate buffer, read-out: solvolysis t1/2 (converted); for solvolysis rate constant k: CH3OH. The method, then: Compound 21 was dissolved in CH3OH (1.5 mL). […] After mixing, the solvolysis solutions were stoppered and kept at 25° C. in the dark. The UV spectrum of the solutions was measured 3-4 times in the first two days and once a day for 2-4 weeks. The UV monitoring was continued until no further change was detectable. The long-wavelength absorption at 380 nm and short-wavelength absorption at 255 nm were monitored. The solvolysis rate constant and half-life were calculated from the data recorded at the short wavelength (255 nm) from the least square treatment of the slopes of plots of time versus ln [(AFinal−Ainitial)/(Afinal−A)].

The mark [8] stands for this setting: Mus musculus, L1210, read-out: In vitro IC50 L1210 natural, natural (S)-enantiomer, Table 4.
Where [9] appears, read: Mus musculus, L1210, read-out: In vitro IC50 L1210 unnatural, unnatural (R)-enantiomer, Table 4.
Setting [10] is: natural (S)-enantiomer, Table 4.
[11] abbreviates: Mus musculus, L1210, read-out: IC50 L1210 natural, natural enantiomer, Table 2.
The mark [12] stands for this setting: Mus musculus, L1210, read-out: IC50 L1210 unnatural, unnatural enantiomer, Table 2.
[13] abbreviates: 60 μg/kg i.p. on days 1, 5, and 9.
[14] abbreviates: 100 μg/kg i.p. on days 1, 5, and 9.
The mark [15] stands for this setting: 250 μg/kg i.p. on days 1, 5, and 9.
The mark [16] stands for this setting: 500 μg/kg i.p. on days 1, 5, and 9.
Where [17] appears, read: pH 1 buffer (: 0.2 M Na2HPO4: H2O 4:1:20).
Setting [18] is: pH 2 buffer (1.0 M citric acid: 0.2 M Na2HPO4: H2O 4:1:20).

In the case of `Nc1cccc2c1C(=O)C=C1N(C(=O)c3cc4cc(NC(=O)c5cc6ccccc6[nH]5)ccc4[nH]3)CC3CC123` (stereo not drawn) [Compound 20, N-(2-(5-Amino-4-oxo-1,2,9,9a-tetrahydrocyclopropa[c]benzo[e]indole-2-carbonyl)-1H-indol-5-yl)-1H-indole-2-carboxamide], in series [1] (L1210, inferred from the racemate IC50), the “fold less active than 4 (active enantiomer)” value was 3-4 fold. For the same compound, the IC50 in series [1] (L1210, racemic parent drug, read-out: IC50) stood at 0.21 nM.
Consider `COC(=O)c1c(C)[nH]c2c(OC(=O)N3CCN(C)CC3)cc3c(c12)[C@H](CBr)CN3C(=O)c1cc2cc(OC)c(OC)c(OC)c2[nH]1` [KW-2189], for which the t1/2 in series [2] is on record as 20 h.
Take `CCN(CC)c1ccc2cc(C(=O)Nc3ccc4[nH]c(C(=O)N5C[C@@H](CCl)c6c5cc(OC(=O)Nc5ccccc5)c5[nH]cc(C)c65)cc4c3)oc2c1` [carzelesin]: the t1/2 in series [3] was below 1 h.
As to `COc1c(O)c2c(c3cc(C(=O)N4CCc5c4c(O)c(OC)c4[nH]c(C(=O)N6CC7CC78C6=CC(=O)c6[nH]cc(C)c68)cc54)[nH]c13)CCN2C(N)=O` (stereo not drawn) [Compound 2, CC-1065, reference compound], the IC50 in series [1] (Mus musculus, L1210, natural (S)-enantiomer, Table 4, read-out: In vitro IC50 L1210 natural) amounted to 0.02 nM; in series [1] (Mus musculus, L1210, natural enantiomer, Table 2, read-out: IC50 L1210 natural), 0.02 nM; in series [1] (Mus musculus, L1210, unnatural (R)-enantiomer, Table 4, read-out: In vitro IC50 L1210 unnatural), 0.02 nM; in series [1] (Mus musculus, L1210, unnatural enantiomer, Table 2, read-out: IC50 L1210 unnatural), 0.02 nM.
In the case of `N=C1Nc2cccc3c4c(cc(c23)O1)N(C(=O)c1cc2cc(NC(=O)c3cc5ccccc5[nH]3)ccc2[nH]1)C[C@H]4CCl` [Compound 24, (S)—N-(2-(10-(chloromethyl)-5-imino-5,8,9,10-tetrahydro-4H-pyrrolo[3′,2′,5,6]naphtho[1,8-de][1,3]oxazine-8-carbonyl)-1H-indol-5-yl)-1H-indole-2-carboxamide], the values for the IC50 in series [1] (setting [8]) and in series [1] (setting [9]) were 0.5 nM and 64 nM, respectively. Also, in series [1] (setting [10]), the “In vitro IC50 L1210 natural” value is “in the nanomolar range”.
Consider `CC(C)(C)OC(=O)N1C[C@@H](CCl)c2c1cc1c3c(cccc23)NC(=O)O1` [Compound 16, tert-Butyl 10-(Chloromethyl)-5-oxo-9,10-dihydro-4H-pyrrolo[3′,2′:5,6]naphtho[1,8-de][1,3]oxazine-8(5H)-carboxylate], for which, in series [1] (L1210), the “fold less active than N-Boc-CBI” value was 50-100 fold. In addition, the 50% inhibitory concentration (IC50) in series [1] (setting [11]) is 4900 nM; in series [1] (setting [12]), 5800 nM. Also, the “stability of the cyclic carbamate to hydrolysis under acidic conditions” value in series [4] (1:1 TFA:CH2Cl2, 4 N HCl in EtOAc, 48 h at 23° C., Boc group cleaved) is listed as “stable”. For the same compound, the “stability to BnNH2” value in series [4] (BnNH2 (100 equiv) in MeOH, 24 h) was “rapidly cleaved”; in series [4] (BnNH2 in THF), “stable”. Also, the “stability in the presence of nucleophiles BnSH and BnOH” value in series [4] (BnSH and BnOH (100 equiv) in MeOH and THF at 23° C. for 48 h) is listed as “completely stable”.
With `CC(C)(C)OC(=O)N1CC2CC23C1=CC(=O)c1ccccc13` (stereo not drawn) [N-Boc-CBI], the IC50 in series [5] is 80 nM.
Take `O=C(Nc1ccc2[nH]c(C(=O)N3C[C@@H](CCl)c4c3cc(O)c3ccccc43)cc2c1)c1cc2ccccc2[nH]1` [Compound 4, seco-CBI-indole2, reference compound]: the IC50 came to 0.03 nM in series [1] (L1210, free drug, natural enantiomer, read-out: IC50); 0.03 nM in series [1] (natural (S)-enantiomer, Table 4, read-out: In vitro IC50 L1210 natural); 0.03 nM in series [1] (natural enantiomer, Table 2, read-out: IC50 L1210 natural); 0.9 nM in series [1] (unnatural (R)-enantiomer, Table 4, read-out: In vitro IC50 L1210 unnatural); 0.9 nM in series [1] (unnatural enantiomer, Table 2, read-out: IC50 L1210 unnatural). Further, the “MSP (Mean Survival Period)” value in series [6] (setting [13]) is reported as above 34.7 days; in series [6] (setting [14]), 6.4 days; in series [6] (setting [15]), 3.7 days; in series [6] (setting [16]) it was 3.0 days. Moreover, the “T/C (Treated/Control MSP x 100)” value in series [6] (setting [13]) was above 197; in series [6] (setting [14]) it was 36; in series [6] (setting [15]) it was 21; in series [6] (setting [16]), 17. For the same compound, the “Surviving Mice” value in series [6] (setting [13]) was 1/10; in series [6] (setting [14]), 0/10; in series [6] (setting [15]), 0/10; in series [6] (setting [16]), 0/10. Further, the “toxicity leading to premature death of the animals” value in series [6] (doses of 100-500 μg/kg i.p. on days 1, 5, and 9) is “toxic”. Further, the optimal dose range in series [7] was 0.06 to 0.1 mg/kg.
Regarding `O=C(Nc1ccc2[nH]c(C(=O)N3C[C@@H](CCl)c4c3cc3c5c(cccc45)N=C(SCCN4C(=O)c5ccccc5C4=O)O3)cc2c1)c1cc2ccccc2[nH]1` [Compound 29, (S)—N-(2-(10-(chloromethyl)-5-((2-(1,3-dioxoisoindolin-2-yl)ethyl)thio)-9,10-dihydro-8H-pyrrolo[3′,2′:5,6]naphtho[1,8-de][1,3]oxazine-8-carbonyl)-1H-indol-5-yl)-1H-indole-2-carboxamide], the IC50 in series [1] (setting [8]) is below 100 nM; in series [1] (read-out: In vitro IC50 L1210 natural, natural (S)-enantiomer, Table 4) it was 83.6 nM.
As for `O=C(Nc1ccc2[nH]c(C(=O)N3C[C@@H](CCl)c4c3cc3c5c(cccc45)NC(=S)O3)cc2c1)c1cc2ccccc2[nH]1` [Compound 25, (S)—N-(2-(10-(chloromethyl)-5-thioxo-5,8,9,10-tetrahydro-4H-pyrrolo[3′,2′,5,6]naphtho[1,8-de][1,3]oxazine-8-carbonyl)-1H-indol-5-yl)-1H-indole-2-carboxamide], the IC50 in series [1] (setting [8]) turned out to be 0.29 nM; in series [1] (setting [9]), 62 nM. The “In vitro IC50 L1210 natural” value in series [1] (setting [10]) was “in the nanomolar range”.
On to `CC(C)(C)OC(=O)N1CC2CC23C1=CC(=O)c1c(N)cccc13` (stereo not drawn) [Compound 21, N-tert-Butyloxycarbonyl-5-amino-1,2,9,9a-tetrahydrocyclopropa[c]benzo[e]indole-4-one], for which, in “Solvolysis of 21” (setting [17]), the half-life is 8.52 h and the “solvolysis rate constant k” value came to 1.5e-05 s⁻¹. Besides, in “Solvolysis of 21” (setting [18]), the half-life is 40.3 h and the “solvolysis rate constant k” value amounted to 5e-06 s⁻¹.
With `COC(=O)c1cc2c([nH]1)C(=O)C=C1N(C(=O)c3cc4cc(OC)c(OC)c(OC)c4[nH]3)CC3CC123` (stereo not drawn) [Compound 1, Duocarmycin SA, reference compound], the IC50 in series [1] (setting [11]) turned out to be 0.01 nM; in series [1] (setting [12]) it was 0.1 nM; in series [1] (setting [8]), 0.01 nM; in series [1] (setting [9]), 0.1 nM.
